Data published in ChEMBL document CHEMBL5058648, “Data for DCP probe SAFit2” (2022).
Values belong to the compound of their own block, whether it stands above or below them.

Tests used:
[1] = molecular target: 5-hydroxytryptamine receptor 5A (Homo sapiens) (UniProt P47898); settings: Compound concentration 10.0 uM
[2] = molecular target: T1, 5-hydroxytryptamine receptor 1D (Homo sapiens, UniProt P28221); settings: Compound concentration 10.0 uM
[3] = molecular target: T2, Sigma intracellular receptor 2 (Homo sapiens, UniProt Q5BJF2); settings: Compound concentration 10.0 uM
[4] = molecular target: Alpha-2B adrenergic receptor (Homo sapiens) (UniProt P18089); settings: Compound concentration 10.0 uM
[5] = molecular target: Muscarinic acetylcholine receptor M5 (Homo sapiens) (UniProt P08912); settings: Compound concentration 10.0 uM
[6] = molecular target: Alpha-2A adrenergic receptor (Homo sapiens) (UniProt P08913); settings: Compound concentration 10.0 uM
[7] = molecular target: Delta-type opioid receptor (Homo sapiens) (UniProt P41143); settings: Compound concentration 10.0 uM
[8] = molecular target: Peptidyl-prolyl cis-trans isomerase FKBP2 (Homo sapiens, UniProt P26885); assay: Competitive fluorescence polarization binding assay (FKBP2)
[9] = molecular target: T3, GABA-A receptor; anion channel (Rattus norvegicus) (UniProt O09028+P15431+P18506+P18508+P19969+P20236+P23574+P23576+P28471+P28473+P30191+P62813+P63079+P63138+Q91ZM7+Q9ES14); settings: Compound concentration 10.0 uM
[10] = molecular target: Muscarinic acetylcholine receptor M2 (Homo sapiens) (UniProt P08172); settings: Compound concentration 10.0 uM
[11] = molecular target: D(1B) dopamine receptor (Homo sapiens) (UniProt P21918); settings: Compound concentration 10.0 uM
[12] = molecular target: T4, Histamine H4 receptor (Homo sapiens, UniProt Q9H3N8); settings: Compound concentration 10.0 uM
[13] = molecular target: Histamine H3 receptor (Homo sapiens) (UniProt Q9Y5N1); settings: Compound concentration 10.0 uM
[14] = molecular target: Muscarinic acetylcholine receptor M1 (Homo sapiens) (UniProt P11229); settings: Compound concentration 10.0 uM
[15] = molecular target: Beta-2 adrenergic receptor (Homo sapiens) (UniProt P07550); settings: Compound concentration 10.0 uM
[16] = molecular target: Alpha-1A adrenergic receptor (Homo sapiens) (UniProt P35348); settings: Compound concentration 10.0 uM
[17] = molecular target: T2, Sigma intracellular receptor 2; assay: GPCRScan assay: inhibition of Sigma 2; parameters: radioligand conc. used [nm] 5.0, parental cells HEKT
[18] = organism: Rattus norvegicus; settings: Compound concentration 10.0 uM
[19] = molecular target: Peptidyl-prolyl cis-trans isomerase FKBP3 (Homo sapiens, UniProt Q00688); assay: Competitive fluorescence polarization binding assay (FKBP3)
[20] = molecular target: 5-hydroxytryptamine receptor 2B (Homo sapiens) (UniProt P41595); settings: Compound concentration 10.0 uM
[21] = molecular target: 5-hydroxytryptamine receptor 2C (Homo sapiens) (UniProt P28335); settings: Compound concentration 10.0 uM
[22] = molecular target: 5-hydroxytryptamine receptor 3A (Homo sapiens) (UniProt P46098); settings: Compound concentration 10.0 uM
[23] = molecular target: 5-hydroxytryptamine receptor 1B (Homo sapiens) (UniProt P28222); settings: Compound concentration 10.0 uM
[24] = molecular target: Muscarinic acetylcholine receptor M3 (Homo sapiens) (UniProt P20309); settings: Compound concentration 10.0 uM
[25] = molecular target: Histamine H1 receptor (Homo sapiens) (UniProt P35367); settings: Compound concentration 10.0 uM
[26] = molecular target: D(3) dopamine receptor (Homo sapiens) (UniProt P35462); settings: Compound concentration 10.0 uM
[27] = molecular target: 5-hydroxytryptamine receptor 2C (Homo sapiens, UniProt P28335); assay: GPCRScan assay: inhibition of 5-HT2C; parameters: radioligand conc. used [nm] 1.0 – 2.5, parental cells HEK T
[28] = molecular target: T5, Sigma non-opioid intracellular receptor 1 (Homo sapiens, UniProt Q99720); settings: Compound concentration 10.0 uM
[29] = molecular target: Mu-type opioid receptor (Homo sapiens) (UniProt P35372); settings: Compound concentration 10.0 uM
[30] = molecular target: Muscarinic acetylcholine receptor M4 (Homo sapiens) (UniProt P08173); settings: Compound concentration 10.0 uM
[31] = molecular target: D(4) dopamine receptor (Homo sapiens) (UniProt P21917); settings: Compound concentration 10.0 uM
[32] = molecular target: Kappa-type opioid receptor (Homo sapiens) (UniProt P41145); settings: Compound concentration 10.0 uM
[33] = molecular target: T3, GABA-A receptor; anion channel (Rattus norvegicus); settings: Compound concentration 10.0 uM; remark: listed apart in the source
[34] = molecular target: 5-hydroxytryptamine receptor 7 (Homo sapiens) (UniProt P34969); settings: Compound concentration 10.0 uM
[35] = molecular target: T6, Sodium-dependent noradrenaline transporter (Homo sapiens, UniProt P23975); settings: Compound concentration 10.0 uM
[36] = molecular target: T7, D(2) dopamine receptor (Homo sapiens, UniProt P14416); settings: Compound concentration 10.0 uM
[37] = molecular target: Beta-3 adrenergic receptor (Homo sapiens) (UniProt P13945); settings: Compound concentration 10.0 uM
[38] = molecular target: T8, Sodium-dependent dopamine transporter (Homo sapiens, UniProt Q01959); settings: Compound concentration 10.0 uM
[39] = molecular target: 5-hydroxytryptamine receptor 6 (Homo sapiens) (UniProt P50406); settings: Compound concentration 10.0 uM
[40] = molecular target: Sodium-dependent serotonin transporter (Homo sapiens) (UniProt P31645); settings: Compound concentration 10.0 uM
[41] = molecular target: Beta-1 adrenergic receptor (Homo sapiens) (UniProt P08588); settings: Compound concentration 10.0 uM
[42] = molecular target: Alpha-2C adrenergic receptor (Homo sapiens) (UniProt P18825); settings: Compound concentration 10.0 uM
[43] = molecular target: Peptidyl-prolyl cis-trans isomerase FKBP4 (Homo sapiens, UniProt Q02790); assay: Competitive fluorescence polarization binding assay (FKBP4)
[44] = molecular target: D(1A) dopamine receptor (Homo sapiens) (UniProt P21728); settings: Compound concentration 10.0 uM
[45] = molecular target: T9, Histamine H2 receptor (Homo sapiens, UniProt P25021); settings: Compound concentration 10.0 uM
[46] = molecular target: 5-hydroxytryptamine receptor 1A (Homo sapiens) (UniProt P08908); settings: Compound concentration 10.0 uM
[47] = molecular target: T7, D(2) dopamine receptor; assay: GPCRScan assay: inhibition of D2; parameters: radioligand conc. used [nm] 0.4 – 1.0, parental cells stable fibroblast
[48] = molecular target: Alpha-1B adrenergic receptor (Homo sapiens) (UniProt P35368); settings: Compound concentration 10.0 uM
[49] = molecular target: T4, Histamine H4 receptor; assay: GPCRScan assay: inhibition of H4; parameters: radioligand conc. used [nm] 1.0 – 5.0, parental cells HEK T
[50] = molecular target: 5-hydroxytryptamine receptor 2A (Homo sapiens) (UniProt P28223); settings: Compound concentration 10.0 uM
[51] = molecular target: T5, Sigma non-opioid intracellular receptor 1; assay: GPCRScan assay: inhibition of Sigma 1; parameters: radioligand conc. used [nm] 4.0 – 5.0, parental cells HEKT
[52] = molecular target: T6, Sodium-dependent noradrenaline transporter; assay: GPCRScan assay: inhibition of NET; parameters: radioligand conc. used [nm] 1.3 – 5.0, parental cells stable HEK
[53] = molecular target: 5-hydroxytryptamine receptor 1E (Homo sapiens) (UniProt P28566); settings: Compound concentration 10.0 uM
[54] = molecular target: T9, Histamine H2 receptor; assay: GPCRScan assay: inhibition of H2; parameters: radioligand conc. used [nm] 0.02 – 0.05, parental cells Stable HEK
[55] = molecular target: T1, 5-hydroxytryptamine receptor 1D; assay: GPCRScan assay: inhibition of 5-HT1D; parameters: radioligand conc. used [nm] 1.0 – 2.0, parental cells HEKT
[56] = molecular target: T8, Sodium-dependent dopamine transporter; assay: GPCRScan assay: inhibition of DAT; parameters: radioligand conc. used [nm] 3.6 – 16.0, parental cells stable HEK

T1 sequence (P28221 whole entry): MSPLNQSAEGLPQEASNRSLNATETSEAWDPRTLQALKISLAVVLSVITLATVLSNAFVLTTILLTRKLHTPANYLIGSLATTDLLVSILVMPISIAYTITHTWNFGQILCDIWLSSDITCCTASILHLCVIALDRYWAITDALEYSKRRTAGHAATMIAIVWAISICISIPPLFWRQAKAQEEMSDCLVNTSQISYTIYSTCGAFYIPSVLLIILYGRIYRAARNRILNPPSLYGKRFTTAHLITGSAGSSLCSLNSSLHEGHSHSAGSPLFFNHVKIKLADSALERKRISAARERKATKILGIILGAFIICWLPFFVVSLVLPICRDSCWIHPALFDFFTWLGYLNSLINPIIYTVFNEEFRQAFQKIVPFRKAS
T2 sequence (Q5BJF2 whole entry): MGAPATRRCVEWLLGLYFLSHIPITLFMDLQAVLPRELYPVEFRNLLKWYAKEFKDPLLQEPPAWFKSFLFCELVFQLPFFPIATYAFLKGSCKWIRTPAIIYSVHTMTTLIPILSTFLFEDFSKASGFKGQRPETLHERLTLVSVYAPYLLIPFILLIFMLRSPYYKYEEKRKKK
T9 sequence (P25021 whole entry): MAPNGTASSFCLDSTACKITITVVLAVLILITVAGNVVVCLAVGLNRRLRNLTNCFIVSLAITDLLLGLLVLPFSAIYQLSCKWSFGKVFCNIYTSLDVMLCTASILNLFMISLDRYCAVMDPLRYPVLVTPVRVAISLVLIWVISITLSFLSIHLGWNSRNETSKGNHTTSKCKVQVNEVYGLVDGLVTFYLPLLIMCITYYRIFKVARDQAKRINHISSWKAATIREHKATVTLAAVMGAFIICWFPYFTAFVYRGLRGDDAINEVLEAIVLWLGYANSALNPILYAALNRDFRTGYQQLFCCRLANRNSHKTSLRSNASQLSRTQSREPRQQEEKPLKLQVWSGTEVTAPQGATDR
T7 sequence (P14416 whole entry): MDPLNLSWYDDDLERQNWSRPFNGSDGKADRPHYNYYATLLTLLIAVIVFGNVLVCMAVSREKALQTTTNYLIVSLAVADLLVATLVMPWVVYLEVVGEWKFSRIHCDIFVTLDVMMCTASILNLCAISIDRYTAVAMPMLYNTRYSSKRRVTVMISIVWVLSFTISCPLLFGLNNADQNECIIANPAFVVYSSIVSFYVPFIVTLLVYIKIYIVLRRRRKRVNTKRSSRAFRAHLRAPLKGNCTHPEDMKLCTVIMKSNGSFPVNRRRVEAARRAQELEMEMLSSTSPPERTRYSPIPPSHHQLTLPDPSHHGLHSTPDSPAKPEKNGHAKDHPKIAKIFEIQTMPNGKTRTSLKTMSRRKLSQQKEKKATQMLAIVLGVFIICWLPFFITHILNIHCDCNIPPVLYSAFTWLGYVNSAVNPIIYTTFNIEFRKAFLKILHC
T8 sequence (Q01959 whole entry): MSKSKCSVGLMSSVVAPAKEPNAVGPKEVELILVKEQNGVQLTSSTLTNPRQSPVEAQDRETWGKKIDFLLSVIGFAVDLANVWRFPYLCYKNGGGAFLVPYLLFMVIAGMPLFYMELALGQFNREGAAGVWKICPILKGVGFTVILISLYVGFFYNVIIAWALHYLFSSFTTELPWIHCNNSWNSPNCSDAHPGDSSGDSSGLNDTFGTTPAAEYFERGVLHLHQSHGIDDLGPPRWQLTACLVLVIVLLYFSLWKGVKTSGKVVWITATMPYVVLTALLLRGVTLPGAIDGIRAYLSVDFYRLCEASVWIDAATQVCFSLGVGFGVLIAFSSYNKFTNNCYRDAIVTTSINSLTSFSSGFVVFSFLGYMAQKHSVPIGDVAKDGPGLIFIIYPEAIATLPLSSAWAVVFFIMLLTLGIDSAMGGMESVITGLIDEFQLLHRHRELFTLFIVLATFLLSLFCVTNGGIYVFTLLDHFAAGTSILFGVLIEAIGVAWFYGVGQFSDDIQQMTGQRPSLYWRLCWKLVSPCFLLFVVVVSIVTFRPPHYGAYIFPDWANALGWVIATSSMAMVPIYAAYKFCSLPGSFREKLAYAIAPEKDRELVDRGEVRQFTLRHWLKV
T6 sequence (P23975 whole entry): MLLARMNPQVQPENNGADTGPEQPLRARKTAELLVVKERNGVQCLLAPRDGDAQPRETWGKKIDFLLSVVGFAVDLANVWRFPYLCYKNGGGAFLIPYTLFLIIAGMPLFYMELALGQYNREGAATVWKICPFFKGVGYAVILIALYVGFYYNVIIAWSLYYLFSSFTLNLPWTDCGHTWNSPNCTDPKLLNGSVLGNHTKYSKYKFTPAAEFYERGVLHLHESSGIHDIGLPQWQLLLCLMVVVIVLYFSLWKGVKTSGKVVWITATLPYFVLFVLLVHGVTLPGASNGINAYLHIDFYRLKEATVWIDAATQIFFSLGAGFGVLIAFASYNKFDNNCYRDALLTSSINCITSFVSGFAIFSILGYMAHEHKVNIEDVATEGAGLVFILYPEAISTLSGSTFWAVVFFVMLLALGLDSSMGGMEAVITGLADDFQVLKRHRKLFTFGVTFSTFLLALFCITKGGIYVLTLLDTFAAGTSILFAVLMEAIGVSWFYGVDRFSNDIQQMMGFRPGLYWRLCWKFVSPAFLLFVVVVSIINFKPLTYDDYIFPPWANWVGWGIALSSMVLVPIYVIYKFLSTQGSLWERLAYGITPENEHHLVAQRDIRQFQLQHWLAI
T5 sequence (Q99720 whole entry): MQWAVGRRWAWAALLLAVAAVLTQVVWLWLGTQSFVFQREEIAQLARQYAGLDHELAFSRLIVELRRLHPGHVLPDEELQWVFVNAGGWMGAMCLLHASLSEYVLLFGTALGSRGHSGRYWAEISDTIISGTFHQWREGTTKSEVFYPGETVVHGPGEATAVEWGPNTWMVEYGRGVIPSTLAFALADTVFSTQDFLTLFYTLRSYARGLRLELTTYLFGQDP
Muscarinic acetylcholine receptor M1 (Homo sapiens), sequence (P11229 whole entry): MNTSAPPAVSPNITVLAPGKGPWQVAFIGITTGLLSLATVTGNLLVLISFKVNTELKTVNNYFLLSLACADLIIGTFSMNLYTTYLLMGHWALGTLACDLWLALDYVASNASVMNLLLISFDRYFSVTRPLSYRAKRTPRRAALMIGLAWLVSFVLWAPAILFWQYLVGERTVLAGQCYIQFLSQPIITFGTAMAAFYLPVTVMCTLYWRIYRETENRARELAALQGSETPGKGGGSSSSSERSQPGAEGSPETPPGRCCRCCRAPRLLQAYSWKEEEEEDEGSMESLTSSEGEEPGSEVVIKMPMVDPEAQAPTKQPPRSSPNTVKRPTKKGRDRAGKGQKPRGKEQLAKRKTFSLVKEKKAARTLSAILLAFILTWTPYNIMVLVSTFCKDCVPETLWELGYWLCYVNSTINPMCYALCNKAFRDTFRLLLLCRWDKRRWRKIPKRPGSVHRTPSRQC
Kappa-type opioid receptor (Homo sapiens), sequence (P41145 whole entry): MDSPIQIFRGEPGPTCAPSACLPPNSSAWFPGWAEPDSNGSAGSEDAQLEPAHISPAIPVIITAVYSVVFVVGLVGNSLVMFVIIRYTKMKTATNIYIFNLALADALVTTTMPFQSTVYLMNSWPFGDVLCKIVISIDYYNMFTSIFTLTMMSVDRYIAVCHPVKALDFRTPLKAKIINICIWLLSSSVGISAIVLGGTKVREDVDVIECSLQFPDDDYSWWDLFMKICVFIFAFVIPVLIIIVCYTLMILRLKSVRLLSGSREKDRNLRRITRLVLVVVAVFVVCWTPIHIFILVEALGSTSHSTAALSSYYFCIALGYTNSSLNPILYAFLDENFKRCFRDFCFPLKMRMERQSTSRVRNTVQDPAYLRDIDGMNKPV
Alpha-2C adrenergic receptor (Homo sapiens), sequence (P18825 whole entry): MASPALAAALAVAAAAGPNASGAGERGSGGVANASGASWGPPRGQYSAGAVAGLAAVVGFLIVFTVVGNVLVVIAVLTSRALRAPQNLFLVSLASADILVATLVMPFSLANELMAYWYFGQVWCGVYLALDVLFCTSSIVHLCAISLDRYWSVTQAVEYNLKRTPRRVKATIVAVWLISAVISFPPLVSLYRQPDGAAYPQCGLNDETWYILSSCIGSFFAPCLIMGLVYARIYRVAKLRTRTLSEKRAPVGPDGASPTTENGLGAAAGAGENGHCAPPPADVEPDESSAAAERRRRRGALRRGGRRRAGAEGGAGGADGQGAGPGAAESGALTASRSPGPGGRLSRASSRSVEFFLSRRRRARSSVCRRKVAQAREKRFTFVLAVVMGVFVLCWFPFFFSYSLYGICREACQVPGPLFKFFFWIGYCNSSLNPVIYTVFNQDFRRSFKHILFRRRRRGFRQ
Alpha-2A adrenergic receptor (Homo sapiens), sequence (P08913 whole entry): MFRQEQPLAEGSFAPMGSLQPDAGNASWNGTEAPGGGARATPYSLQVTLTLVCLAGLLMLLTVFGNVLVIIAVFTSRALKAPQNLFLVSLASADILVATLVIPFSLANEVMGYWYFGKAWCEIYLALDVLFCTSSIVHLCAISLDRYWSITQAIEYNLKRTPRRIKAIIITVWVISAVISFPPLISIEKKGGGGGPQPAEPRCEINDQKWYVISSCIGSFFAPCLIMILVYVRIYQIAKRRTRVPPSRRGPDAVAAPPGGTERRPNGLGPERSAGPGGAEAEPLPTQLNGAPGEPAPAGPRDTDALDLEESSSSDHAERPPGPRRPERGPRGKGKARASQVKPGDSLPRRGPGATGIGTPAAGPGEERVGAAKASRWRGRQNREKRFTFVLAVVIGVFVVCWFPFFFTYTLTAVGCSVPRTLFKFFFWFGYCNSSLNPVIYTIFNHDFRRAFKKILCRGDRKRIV
5-hydroxytryptamine receptor 5A (Homo sapiens), sequence (P47898 whole entry): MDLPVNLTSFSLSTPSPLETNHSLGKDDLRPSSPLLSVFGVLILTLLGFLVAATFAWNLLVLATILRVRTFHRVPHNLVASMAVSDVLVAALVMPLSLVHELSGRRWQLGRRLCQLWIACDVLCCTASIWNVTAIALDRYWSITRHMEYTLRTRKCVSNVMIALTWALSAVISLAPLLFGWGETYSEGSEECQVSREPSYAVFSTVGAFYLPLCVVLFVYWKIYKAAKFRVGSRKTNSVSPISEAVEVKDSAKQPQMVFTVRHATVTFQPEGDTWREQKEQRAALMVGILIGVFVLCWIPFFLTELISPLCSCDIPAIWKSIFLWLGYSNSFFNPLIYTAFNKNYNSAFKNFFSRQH

- inhibition [1]: 25.9%
- inhibition [2]: 15.5%
- inhibition [3]: 84.9%
- inhibition [4]: 7.6%
- inhibition [5]: 20.5%
- inhibition [6]: 23.8%
- inhibition [7]: 13.4%
- Kd [8]: 1050 nM (not active)
- inhibition [9]: 17.2%
- inhibition [10]: 7%
- inhibition [11]: 9.2%
- inhibition [12]: 71.8%
- inhibition [13]: 12.9%
- inhibition [14]: 7.5%
- inhibition [15]: 14.5%
- inhibition [16]: 6.7%
- Ki [17]: 226 nM
- inhibition [18]: 3.1%
- Kd [19]: > 10000 nM (not active)
- inhibition [20]: 8.5%
- inhibition [21]: 56.1%
- inhibition [22]: 7.6%
- inhibition [23]: 0.6%
- inhibition [24]: 0.4%
- inhibition [25]: 37.9%
- inhibition [26]: 39.7%
- Ki [27]: > 10000 nM
- inhibition [28]: 49.4%
- inhibition [29]: 20.9%
- inhibition [30]: 3.4%
- inhibition [31]: 8.1%
- inhibition [32]: 5.9%
- inhibition [33]: -9.9%
- inhibition [34]: 3%
- inhibition [35]: 36.9%
- inhibition [36]: 50%
- inhibition [37]: 37.1%
- inhibition [38]: 41%
- inhibition [39]: 9.5%
- inhibition [40]: 9.5%
- inhibition [41]: -6.5%
- inhibition [42]: 49.7%
- Kd [43]: > 50000 nM (not active)
- inhibition [44]: 24.3%
- inhibition [45]: 30.3%
- inhibition [46]: -0.3%
- Ki [47]: > 10000 nM
- inhibition [48]: -1.1%
- Ki [49]: 3380 nM
- inhibition [50]: 21.9%
Structure (SMILES): COc1ccc(CC[C@@H](OC(=O)[C@@H]2CCCCN2C(=O)[C@H](c2cc(OC)c(OC)c(OC)c2)C2CCCCC2)c2cccc(OCCN3CCOCC3)c2)cc1OC

- inhibition [1]: 6.87%
- inhibition [2]: 57%
- Ki [51]: 2850 nM
- inhibition [3]: 98.4%
- inhibition [4]: 19.7%
- inhibition [5]: -1.68%
- inhibition [6]: 26.6%
- inhibition [7]: 4.39%
- Ki [52]: > 10000 nM
- pKi [52]: < 5
- inhibition [11]: 4.07%
- inhibition [12]: 49.5%
- inhibition [13]: 10.2%
- inhibition [14]: 4.82%
- Ki [17]: 409 nM
- inhibition [20]: 19.4%
- inhibition [22]: 0.13%
- inhibition [23]: 30.2%
- inhibition [24]: -3.44%
- inhibition [25]: 14.2%
- inhibition [53]: 12.6%
- inhibition [26]: 28.1%
- inhibition [28]: 58.1%
- inhibition [29]: 4.34%
- inhibition [30]: 18%
- inhibition [31]: 9.71%
- inhibition [32]: 5.75%
- Ki ([54]; read-out: Ki): 2960 nM
- Ki ([54]; read-out: pKi (converted)): 2690 nM
- inhibition [33]: 20.6%
- Ki ([55]; read-out: Ki): 3130 nM
- Ki ([55]; read-out: pKi (converted)): 3090 nM
- inhibition [34]: -3.87%
- inhibition [35]: 52.4%
- inhibition [36]: 14.7%
- inhibition [37]: 35.1%
- inhibition [38]: 68.4%
- inhibition [40]: -5.1%
- inhibition [41]: -0.58%
- inhibition [42]: 25.2%
- Ki ([56]; read-out: Ki): 2180 nM
- Ki ([56]; read-out: pKi (converted)): 2190 nM
- inhibition [44]: 19.1%
- inhibition [45]: 50.7%
- inhibition [46]: 12.2%
- inhibition [48]: -5.8%
- inhibition [50]: 4.4%
Structure (SMILES): COc1ccc(CC[C@@H](OC(=O)[C@H]2CCCCN2C(=O)[C@@H](c2cc(OC)c(OC)c(OC)c2)C2CCCCC2)c2cccc(OCCN3CCOCC3)c2)cc1OC
